# Experimental data from patent US5681817A, “Treatment of ovarian estrogen dependent conditions” (The Medical College of Hampton Roads, priority 1994, dated 1997).
# Entries after “also recorded” stand apart in the source; their conditions may differ.
# Key:
# [1] = system: bone mineral density of the lumbar spine; assay: Dual X-ray absorptiometry bone mineral density of the lumbar spine; assay type: in vivo, cynomolgus monkeys (Macaca facularis); conditions: for change in bone density: after three months of treatment, group level; for bone density in fast bone losers: group 1 animals losing bone on GnRH analog (e.g. monkey 2190, FIG. 3), three months GnRH analog, then three months antiprogestin
# Experimental: (§1) Primates were divided equally into four treatment groups (N=8). Group 1 was given monthly injections of the gonadotropin releasing hormone agonist, in an amount of 80 μg/kg im on menstrual day 21 of the second laparotomy cycle. This was continued at 28 day intervals for a total of 3 injections, at which time weekly injections of the antiprogestin RU 486 began, (5 mg/kg im, in oil, initially, then 2 mg/kg/week). RU 486 was continued for a period of 24 weeks.
# (§2) Group 2 was given weekly im injections of RU 486 alone (5 mg/kg initially, then 2 mg/kg/week) beginning on menstrual day 1 of the cycle after the endometriosis was confirmed. This was continued for a treatment period of 36 weeks. Group 3 was given doses of the GnRH analog alone for 36 weeks. Group 4 was a control and received vehicle, 0.5 ml of normal saline im, weekly for 36 weeks.
# Urine was collected at the time of blood sampling. The first sample was taken at the time of the first laparotomy and the second sample was taken at the time of the first injection with subsequent samples drawn every four weeks from the time of the second urine sample. Dual X-ray absorptiometry (DXA, Norland) was used to measure the bone mineral density of the lumbar spine. Primates were anesthetized with ketamine and restrained to minimize motion artifact. DXA was performed before injections began and at three month intervals until completion of the study.
# [2] = system: peritoneal endometriosis (ectopic endometrial implants); assay: Area of ectopic endometrium on peritoneal surfaces at staging laparotomy; assay type: in vivo, cynomolgus monkeys (Macaca facularis); conditions: for area of ectopic endometrium on peritoneal surfaces / size of endometrial implants: post-treatment vs pre-treatment and vs control, FIG. 2, Wilcoxon p<0.05; for mean area of peritoneal disease after switch from GnRH analog to RU 486: Group 1, RU 486 for three months after the course of GnRH analog
# Experimental: (§3) Using anesthesia (ketamine 20 mg/kg im, xylazine, 1 mg/kg) on day 3 of the menstrual cycle, a diagnostic laparoscopy was performed to rule out pelvic adhesive disease or extant endometriosis. Monkeys with observable pelvic adhesions were excluded. Blood was collected on menstrual days 8-14 via venipuncture (ketamine 10 mg/kg im), and serum assayed for estradiol-17β by RIA. Laparotomy (ketamine 20 mg/kg, xylazine 1 mg/kg) was performed 3-5 days after a clearly defined pre-ovulatory estradiol peak. A 2 cm fundal hysterotomy was performed and approximately 100 mg of endometrium removed by curettage and minced in sterile 0.9% saline. The uterine incision was closed with 4-0 vicryl suture. The minced endometrial tissue was injected sub-peritoneally into five sites, namely, the left and right vesicouterine fold, right and left broad ligaments, and the cul-de-sac.
# During the subsequent menstrual cycle, laparotomy was performed 3 to 5 days after the mid-cycle estradiol surge. The presence of ectopic endometrial tissue and the extent of adhesions were noted, with peritoneal implants carefully measured. Photographs of all lesions were taken and assigned a random number for later histological staging of the endometriosis by an independent observer. Biopsies were taken from representative lesions, and the tissue fixed in 10% formalin for histologic examination after hematoxylin and eosin staining.
# as §1, §2
# After daily injections began, a staging laparotomy was performed every 12 weeks until the end of therapy to assess the progression or regression of the disease.
# [3] = system: female cynomolgus monkeys; assay: Ovulation and serum estradiol/progesterone by RIA in monkeys with induced endometriosis; assay type: in vivo, cynomolgus monkeys (Macaca facularis); conditions: for mean tonic serum estradiol level: RIA, FIG. 1, control 40.6±43; for suppression of ovulation: treatment alone
# Experimental: For the purposes of this study, the gonadotropin releasing hormone agonist selected was leuprolide acetate, the anti-progestin selected was RU 486 and these were administered to female cynomolgus monkeys, which are recognized to be a highly desirable model for human research.
# Thirty-six adult female cynomolgus monkeys (Macaca facularis) having regular menstrual cycles were housed in individual cages which had food and water available ad librium.
# as §3, §1, §2
# Using ketamine anesthesia, blood was collected on alternate days in all groups for 28 days after the initial treatments following confirmation of active endometriosis. The serum was frozen for later analysis. Thereafter, blood was collected weekly. Blood draws continued until spontaneous menses resumed, or two months after the conclusion of injections, whichever came first. Serum was frozen, labelled, and stored for subsequent radioimmunoassay. Estradiol and progesterone were assayed using RIA (ICN Biomedical, Los Angeles, Calif.).
# [4] = system: endometrial and vaginal epithelium; assay: Histological assessment of endometrium and vaginal epithelium (hematoxylin and eosin); assay type: in vivo, cynomolgus monkeys (Macaca facularis); conditions: for ENDOMETRIUM MENTRUAL PHASE / ENDOMETRIUM THICKNESS / VAGINAL EPITHELIUM AND KERATIN: histology; for ENDOMETRIUM MENTRUAL PHASE / ENDOMETRIUM THICKNESS: hematoxylin and eosin; for VAGINAL EPITHELIUM AND KERATIN: thickness
# Experimental: Primates were divided equally into four treatment groups (N=8). Group 1 was given monthly injections of the gonadotropin releasing hormone agonist, in an amount of 80 μg/kg im on menstrual day 21 of the second laparotomy cycle. This was continued at 28 day intervals for a total of 3 injections, at which time weekly injections of the antiprogestin RU 486 began, (5 mg/kg im, in oil, initially, then 2 mg/kg/week). RU 486 was continued for a period of 24 weeks. Group 2 was given weekly im injections of RU 486 alone (5 mg/kg initially, then 2 mg/kg/week) beginning on menstrual day 1 of the cycle after the endometriosis was confirmed. This was continued for a treatment period of 36 weeks. Group 3 was given doses of the GnRH analog alone for 36 weeks. Group 4 was a control and received vehicle, 0.5 ml of normal saline im, weekly for 36 weeks. Vaginal epithelium was obtained at the time of each surgery using Kevorkian biopsy forceps taken from the lateral vaginal side of the upper two-thirds of the vagina. At the time of each laparotomy, a small repeat hysterotomy was performed for the purpose of endometrial sampling for histologic examination.
# [5] = system: endometriosis; conditions: cited from earlier work
# [6] = system: uterine leiomyomata; conditions: cited from earlier work
smiles,measurement,setting,value
"CCNC(=O)[C@@H]1CCCN1C(=O)[C@H](CCCNC(=N)N)NC(=O)[C@H](CC(C)C)NC(=O)[C@@H](CC(C)C)NC(=O)[C@H](Cc1ccc(O)cc1)NC(=O)[C@H](CO)NC(=O)[C@H](Cc1c[nH]c2ccccc12)NC(=O)[C@H](Cc1c[nH]cn1)NC(=O)[C@@H]1CCC(=O)N1 [GnRH analog, leuprolide acetate]",change in bone density,[1],no change
same,bone density in fast bone losers,[1],significant degree of bone loss
same,area of ectopic endometrium on peritoneal surfaces / size of endometrial implants,[2],unequivocal limiting impact
same,mean tonic serum estradiol level,[3],24.2 ± 17 pg/mL
same,suppression of ovulation,[3],suppression of ovulation
same,ENDOMETRIUM MENTRUAL PHASE,[4],weakly proliferative
same,ENDOMETRIUM THICKNESS,[4],uniformly thin
same,ENDOMETRIUM THICKNESS,[4]; listed as ANALOG ONLY,THIN
same,VAGINAL EPITHELIUM AND KERATIN,[4],THIN
"C#C[C@]1(O)CC[C@H]2[C@@H]3CCC4=Cc5oncc5C[C@]4(C)[C@H]3CC[C@@]21C [danazol, 17-α-pregna-2,4-dien-20-yno[2,3-d]-isoxazol-17-ol]",side effects,[5]; in vivo,many androgenic side effects
same,efficacy in treatment of endometriosis,[5]; producing a hypoestrogenic milieu,effective medication for the treatment of endometriosis
CC(=O)O[C@]1(C(C)=O)CC[C@H]2[C@@H]3C[C@H](C)C4=CC(=O)CC[C@]4(C)[C@H]3CC[C@@]21C [medoxyprogesterone acetate],hot flashes and urinary calcium loss,[6]; add-back regimen with leuprolide,reduced
same,total uterine volume,"[6]; add-back regimen with leuprolide, not back to baseline values",modest increase
same,effect on agonist-induced decrease of nonmyoma volume,[6]; concomitant treatment with leuprolide,reverse the effectiveness
"CC#C[C@]1(O)CC[C@H]2[C@@H]3CCC4=CC(=O)CCC4=C3[C@@H](c3ccc(N(C)C)cc3)C[C@@]21C [RU 486, mifepristone]","bone density, PRE-TREATMENT (MEAN ± SD)","[1]; DXA lumbar spine, baseline before injections",0.501 ± 0.029
same,"bone density, AFTER 3 MONTHS","[1]; DXA lumbar spine, mean ± SD, in group 1 the first 3 months are GnRH analog",0.541 ± 0.033
same,change in bone density,[1],marginally significant increase in bone density
same,bone density in fast bone losers,[1],counteracted this loss; also recorded: returned to baseline
same,mean area of peritoneal disease after switch from GnRH analog to RU 486,[2],remained the unchanged
same,mean area of peritoneal disease after switch from GnRH analog to RU 486,[2]; listed as antiprogestin,able to sustain the reduced surface of peritoneal endometriosis
same,area of ectopic endometrium on peritoneal surfaces / size of endometrial implants,[2],unequivocal limiting impact
same,mean tonic serum estradiol level,[3],57.8 ± 34.6 pg/mL
same,suppression of ovulation,[3],suppression of ovulation
same,vaginal atrophy,"[4]; cynomolgus monkey, in vivo",not noted
same,ENDOMETRIUM MENTRUAL PHASE,[4],interval phase
same,ENDOMETRIUM THICKNESS,[4]; listed as antiprogestin,thinner than in control monkeys; also recorded: remained moderately thin
same,VAGINAL EPITHELIUM AND KERATIN,[4]; listed as antiprogestin,greater in the antiprogestin group than in the GnRH analog groups; also recorded: thicker
